# Assay results from ChEMBL document CHEMBL3822442, “Synthesis and Pharmacological Characterization of Novel Glucagon-like Peptide-2 (GLP-2) Analogues with Low Systemic Clearance” (J Med Chem, 2016).
# Active and inactive are the calls of the source. The rule behind the calls is not given here. Non-standard residues stand in square brackets, D forms with d. Residues, ends and D or L forms follow the SMILES beside them. ξ: configuration not given here. ξhPhe = NC(CCc1ccccc1)C(=O)O; ξNle = CCCCC(N)C(=O)O
# Experiments:
# [1] = Protein binding in rat plasma at 200 to 1000 ng/ml incubated for 15 mins by LC/MS/MS based ultracentrifugation method; type: ADME, cell-free; details: read-out: PPB (converted)
# [2] = target: T1, Glucagon-like peptide 2 receptor (Homo sapiens, UniProt O95838); assay: Agonist activity at human GLP2R expressed in HEK293 cells after 5 hrs by luciferase reporter gene assay; type: cell-based
# T1 sequence (O95838 whole entry): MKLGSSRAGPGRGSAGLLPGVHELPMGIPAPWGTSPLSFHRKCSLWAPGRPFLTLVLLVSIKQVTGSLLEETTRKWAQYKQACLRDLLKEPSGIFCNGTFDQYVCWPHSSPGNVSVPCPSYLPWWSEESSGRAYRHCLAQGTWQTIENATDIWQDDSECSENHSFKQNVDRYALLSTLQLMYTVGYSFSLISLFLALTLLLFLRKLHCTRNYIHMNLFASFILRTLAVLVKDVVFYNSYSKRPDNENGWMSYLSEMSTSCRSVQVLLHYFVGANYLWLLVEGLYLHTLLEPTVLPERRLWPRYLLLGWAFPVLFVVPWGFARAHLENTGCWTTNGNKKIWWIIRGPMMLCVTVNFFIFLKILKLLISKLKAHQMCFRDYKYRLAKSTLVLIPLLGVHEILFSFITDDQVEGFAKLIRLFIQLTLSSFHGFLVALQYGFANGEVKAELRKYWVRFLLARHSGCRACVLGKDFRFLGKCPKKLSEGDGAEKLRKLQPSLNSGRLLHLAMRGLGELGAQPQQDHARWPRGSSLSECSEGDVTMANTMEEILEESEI
# [3] = target: Glucagon-like peptide 1 receptor (Homo sapiens, UniProt P43220); assay: Agonist activity at human GLP1R expressed in HEK293 cells after 5 hrs by luciferase reporter gene assay; type: cell-based
# [4] = tested on: HEK293; assay: Selectivity ratio of EC50 for human GLP1R expressed in HEK293 cells to EC50 for human GLP2R expressed in HEK293; type: cell-based
# [5] = Systemic clearance in Sprague-Dawley rat at 0.2 mg/kg, iv through cassette dosing measured up to 300 mins by LC/MS/MS analysis; type: ADME, organism-based; details: in vivo
# [6] = target: Glucagon receptor (Homo sapiens) (UniProt P47871); assay: Agonist activity at human GCGR expressed in HEK293 cells up to 1000 nM after 5 hrs by luciferase reporter gene assay; type: cell-based
# Sequence of Glucagon receptor (Homo sapiens) (P47871 whole entry): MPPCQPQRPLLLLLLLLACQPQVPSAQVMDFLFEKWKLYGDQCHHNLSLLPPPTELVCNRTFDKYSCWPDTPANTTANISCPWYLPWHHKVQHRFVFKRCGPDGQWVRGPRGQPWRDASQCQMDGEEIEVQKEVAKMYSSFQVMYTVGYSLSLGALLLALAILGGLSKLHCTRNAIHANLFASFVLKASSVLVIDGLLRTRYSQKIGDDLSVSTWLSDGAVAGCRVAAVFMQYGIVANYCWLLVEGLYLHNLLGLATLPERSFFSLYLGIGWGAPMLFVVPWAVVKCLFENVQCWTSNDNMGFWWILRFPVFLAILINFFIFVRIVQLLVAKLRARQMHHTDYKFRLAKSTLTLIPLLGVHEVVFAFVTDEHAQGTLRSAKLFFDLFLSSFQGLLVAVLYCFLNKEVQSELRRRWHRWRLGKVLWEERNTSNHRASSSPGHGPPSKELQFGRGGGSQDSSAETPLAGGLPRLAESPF
# Sequence of Glucagon-like peptide 1 receptor (P43220 whole entry): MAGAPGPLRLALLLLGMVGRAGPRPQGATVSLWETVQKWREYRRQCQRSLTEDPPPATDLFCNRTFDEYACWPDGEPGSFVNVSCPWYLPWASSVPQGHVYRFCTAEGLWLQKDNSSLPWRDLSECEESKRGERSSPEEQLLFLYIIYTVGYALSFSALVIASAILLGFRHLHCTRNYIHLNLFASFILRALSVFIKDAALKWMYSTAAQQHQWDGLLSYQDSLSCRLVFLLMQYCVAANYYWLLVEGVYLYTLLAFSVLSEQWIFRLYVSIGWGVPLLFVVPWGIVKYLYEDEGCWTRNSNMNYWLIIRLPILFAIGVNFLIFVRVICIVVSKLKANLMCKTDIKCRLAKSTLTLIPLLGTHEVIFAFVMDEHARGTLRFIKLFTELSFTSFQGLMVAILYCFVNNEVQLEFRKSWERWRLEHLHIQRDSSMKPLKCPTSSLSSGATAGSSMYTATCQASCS
Structure (SMILES),fraction unbound at 0.25 h [1],EC50 [2] [nM],EC50 [3] [nM],Ratio EC50 [4],clearance [5] [mL/min/kg],Activity [6]
CCCC[C@H](NC(=O)[C@H](CCC(=O)O)NC(=O)[C@H](CC(=O)O)NC(=O)[C@H](CO)NC(=O)[C@H](Cc1ccccc1)NC(=O)[C@H](CO)NC(=O)CNC(=O)[C@H](CC(=O)O)NC(=O)CNC(=O)[C@@H](N)Cc1cnc[nH]1)C(=O)N[C@H](Cc1ccccc1)C(=O)N[C@H](C(=O)N[C@H](C(=O)N[C@@H](CC(C)C)C(=O)N[C@@H](CC(=O)O)C(=O)N[C@@H](CC(N)=O)C(=O)N[C@@H](CC(C)C)C(=O)N[C@@H](C)C(=O)N[C@@H](C)C(=O)N[C@@H](CCCNC(=N)N)C(=O)N[C@@H](CC(=O)O)C(=O)N[C@@H](Cc1ccccc1)C(=O)N[C@H](C(=O)N[C@@H](CC(N)=O)C(=O)N[C@@H](Cc1c[nH]c2ccccc12)C(=O)N[C@@H](CC(C)C)C(=O)N[C@H](C(=O)N[C@@H](CCC(N)=O)C(=O)N[C@H](C(=O)N[C@@H](CCCCN)C(N)=O)[C@@H](C)O)[C@@H](C)CC)[C@@H](C)CC)[C@@H](C)CC)[C@@H](C)O,0.039,0.09,120,,,
CCCCC(NC(=O)[C@H](CCC(=O)O)NC(=O)[C@H](CC(=O)O)NC(=O)[C@H](CO)NC(=O)[C@H](Cc1ccccc1)NC(=O)[C@H](CO)NC(=O)CNC(=O)[C@H](CC(=O)O)NC(=O)CNC(=O)[C@@H](N)Cc1cnc[nH]1)C(=O)N[C@@H](CC(N)=O)C(=O)N[C@H](C(=O)N[C@H](C(=O)N[C@@H](CC(C)C)C(=O)N[C@@H](CC(=O)O)C(=O)NC(CCc1ccccc1)C(=O)N[C@@H](CC(C)C)C(=O)N[C@@H](C)C(=O)N[C@@H](C)C(=O)N[C@@H](CCCNC(=N)N)C(=O)N[C@@H](CC(=O)O)C(=O)N[C@@H](Cc1ccccc1)C(=O)N[C@H](C(=O)N[C@@H](CC(N)=O)C(=O)N[C@@H](Cc1c[nH]c2ccccc12)C(=O)N[C@@H](CC(C)C)C(=O)N[C@H](C(=O)N[C@@H](CCC(N)=O)C(=O)N[C@H](C(=O)N[C@@H](CCCCN)C(N)=O)[C@@H](C)O)[C@@H](C)CC)[C@@H](C)CC)[C@@H](C)CC)[C@@H](C)O (some centres undefined) (H-HGDGSFSDE[ξNle]NTILD[ξhPhe]LAARDFINWLIQTK-NH2),,0.11,> 1000,> 9000,0.44,inactive
CCCCC(NC(=O)[C@H](CCC(=O)O)NC(=O)[C@H](CC(=O)O)NC(=O)[C@H](CO)NC(=O)[C@H](Cc1ccccc1)NC(=O)[C@H](CO)NC(=O)CNC(=O)[C@H](CC(=O)O)NC(=O)CNC(=O)[C@@H](N)Cc1cnc[nH]1)C(=O)N[C@@H](CC(N)=O)C(=O)N[C@H](C(=O)N[C@H](C(=O)N[C@@H](CC(C)C)C(=O)N[C@@H](CC(=O)O)C(=O)N[C@@H](Cc1c[nH]c2ccccc12)C(=O)N[C@@H](CC(C)C)C(=O)N[C@@H](C)C(=O)N[C@@H](C)C(=O)N[C@@H](CCCNC(=N)N)C(=O)N[C@@H](CC(=O)O)C(=O)N[C@@H](Cc1ccccc1)C(=O)N[C@H](C(=O)N[C@@H](CC(N)=O)C(=O)N[C@@H](Cc1c[nH]c2ccccc12)C(=O)N[C@@H](CC(C)C)C(=O)N[C@H](C(=O)N[C@@H](CCC(N)=O)C(=O)N[C@H](C(=O)N[C@@H](CCCCN)C(N)=O)[C@@H](C)O)[C@@H](C)CC)[C@@H](C)CC)[C@@H](C)CC)[C@@H](C)O (some centres undefined) (H-HGDGSFSDE[ξNle]NTILDWLAARDFINWLIQTK-NH2),,0.15,> 1000,> 6600,0.5,inactive
CCCC[C@H](NC(=O)[C@H](CCC(=O)O)NC(=O)[C@H](CC(=O)O)NC(=O)[C@H](CO)NC(=O)[C@H](Cc1ccccc1)NC(=O)[C@H](CO)NC(=O)CNC(=O)[C@H](CC(=O)O)NC(=O)CNC(=O)[C@@H](N)Cc1cnc[nH]1)C(=O)N[C@H](Cc1ccccc1)C(=O)N[C@H](C(=O)N[C@H](C(=O)N[C@@H](CC(C)C)C(=O)N[C@@H](CC(=O)O)C(=O)N[C@@H](CC(C)C)C(=O)N[C@@H](CC(C)C)C(=O)N[C@@H](C)C(=O)N[C@@H](C)C(=O)N[C@@H](CCCNC(=N)N)C(=O)N[C@@H](CC(=O)O)C(=O)N[C@@H](Cc1ccccc1)C(=O)N[C@H](C(=O)N[C@@H](CC(N)=O)C(=O)N[C@@H](Cc1c[nH]c2ccccc12)C(=O)N[C@@H](CC(C)C)C(=O)N[C@H](C(=O)N[C@@H](CCC(N)=O)C(=O)N[C@H](C(=O)N[C@@H](CCCCN)C(N)=O)[C@@H](C)O)[C@@H](C)CC)[C@@H](C)CC)[C@@H](C)CC)[C@@H](C)O,0.024,0.08,> 1000,,,
CCCCC(NC(=O)[C@H](CCC(=O)O)NC(=O)[C@H](CC(=O)O)NC(=O)[C@H](CO)NC(=O)[C@H](Cc1ccccc1)NC(=O)[C@H](CO)NC(=O)CNC(=O)[C@H](CC(=O)O)NC(=O)CNC(=O)[C@@H](N)Cc1cnc[nH]1)C(=O)N[C@@H](CC(N)=O)C(=O)N[C@H](C(=O)N[C@H](C(=O)N[C@@H](CC(C)C)C(=O)N[C@@H](CC(=O)O)C(=O)N[C@@H](Cc1ccccc1)C(=O)N[C@@H](CC(C)C)C(=O)N[C@@H](C)C(=O)N[C@@H](C)C(=O)N[C@@H](CCCNC(=N)N)C(=O)N[C@@H](CC(=O)O)C(=O)N[C@@H](Cc1ccccc1)C(=O)N[C@H](C(=O)N[C@@H](CC(N)=O)C(=O)N[C@@H](Cc1c[nH]c2ccccc12)C(=O)N[C@@H](CC(C)C)C(=O)N[C@H](C(=O)N[C@@H](CCC(N)=O)C(=O)N[C@H](C(=O)N[C@@H](CCCCN)C(N)=O)[C@@H](C)O)[C@@H](C)CC)[C@@H](C)CC)[C@@H](C)CC)[C@@H](C)O (some centres undefined) (H-HGDGSFSDE[ξNle]NTILDFLAARDFINWLIQTK-NH2),,0.14,> 1000,> 7100,5.9,inactive
CC[C@H](C)[C@H](NC(=O)[C@H](Cc1ccccc1)NC(=O)[C@H](CC(=O)O)NC(=O)[C@H](CCCN=C(N)N)NC(=O)[C@H](C)NC(=O)[C@H](C)NC(=O)[C@H](CC(C)C)NC(=O)[C@H](CC(N)=O)NC(=O)[C@H](CC(=O)O)NC(=O)[C@H](CC(C)C)NC(=O)[C@@H](NC(=O)[C@@H](NC(=O)[C@H](CC(N)=O)NC(=O)[C@H](CCSC)NC(=O)[C@H](CCC(=O)O)NC(=O)[C@H](CC(=O)O)NC(=O)[C@H](CO)NC(=O)[C@H](Cc1ccccc1)NC(=O)[C@H](CO)NC(=O)CNC(=O)[C@H](CC(=O)O)NC(=O)[C@H](C)NC(=O)[C@@H](N)Cc1cnc[nH]1)[C@@H](C)O)[C@@H](C)CC)C(=O)N[C@@H](CC(N)=O)C(=O)N[C@@H](Cc1c[nH]c2ccccc12)C(=O)N[C@@H](CC(C)C)C(=O)N[C@H](C(=O)N[C@@H](CCC(N)=O)C(=O)N[C@H](C(=O)N[C@@H](CCCCN)C(=O)N[C@H](C(=O)N[C@H](C(=O)N[C@@H](CC(=O)O)C(=O)O)[C@@H](C)O)[C@@H](C)CC)[C@@H](C)O)[C@@H](C)CC,0.338,,520,,25,
CCCCC(NC(=O)[C@H](CCC(=O)O)NC(=O)[C@H](CC(=O)O)NC(=O)[C@H](CO)NC(=O)[C@H](Cc1ccccc1)NC(=O)[C@H](CO)NC(=O)CNC(=O)[C@H](CC(=O)O)NC(=O)CNC(=O)[C@@H](N)Cc1cnc[nH]1)C(=O)N[C@@H](CC(N)=O)C(=O)N[C@H](C(=O)N[C@H](C(=O)N[C@@H](CC(C)C)C(=O)N[C@@H](CC(=O)O)C(=O)N[C@@H](Cc1ccc(O)cc1)C(=O)N[C@@H](CC(C)C)C(=O)N[C@@H](C)C(=O)N[C@@H](C)C(=O)N[C@@H](CCCNC(=N)N)C(=O)N[C@@H](CC(=O)O)C(=O)N[C@@H](Cc1ccccc1)C(=O)N[C@H](C(=O)N[C@@H](CC(N)=O)C(=O)N[C@@H](Cc1c[nH]c2ccccc12)C(=O)N[C@@H](CC(C)C)C(=O)N[C@H](C(=O)N[C@@H](CCC(N)=O)C(=O)N[C@H](C(=O)N[C@@H](CCCCN)C(N)=O)[C@@H](C)O)[C@@H](C)CC)[C@@H](C)CC)[C@@H](C)CC)[C@@H](C)O (some centres undefined) (H-HGDGSFSDE[ξNle]NTILDYLAARDFINWLIQTK-NH2),,0.11,> 1000,> 9000,1.2,inactive
CCCCC(NC(=O)[C@H](CCC(=O)O)NC(=O)[C@H](CC(=O)O)NC(=O)[C@H](CO)NC(=O)[C@H](Cc1ccccc1)NC(=O)[C@H](CO)NC(=O)CNC(=O)[C@H](CC(=O)O)NC(=O)CNC(=O)[C@@H](N)Cc1cnc[nH]1)C(=O)N[C@@H](CC(N)=O)C(=O)N[C@H](C(=O)N[C@H](C(=O)N[C@@H](CC(C)C)C(=O)N[C@@H](CC(=O)O)C(=O)N[C@@H](Cc1cnc[nH]1)C(=O)N[C@@H](CC(C)C)C(=O)N[C@@H](C)C(=O)N[C@@H](C)C(=O)N[C@@H](CCCNC(=N)N)C(=O)N[C@@H](CC(=O)O)C(=O)N[C@@H](Cc1ccccc1)C(=O)N[C@H](C(=O)N[C@@H](CC(N)=O)C(=O)N[C@@H](Cc1c[nH]c2ccccc12)C(=O)N[C@@H](CC(C)C)C(=O)N[C@H](C(=O)N[C@@H](CCC(N)=O)C(=O)N[C@H](C(=O)N[C@@H](CCCCN)C(N)=O)[C@@H](C)O)[C@@H](C)CC)[C@@H](C)CC)[C@@H](C)CC)[C@@H](C)O (some centres undefined) (H-HGDGSFSDE[ξNle]NTILDHLAARDFINWLIQTK-NH2),,0.42,> 1000,> 2300,0.13,inactive
